Measured values published in US20250064762A1, “A SUBSTITUTED AROMATIC DICARBONIC ACID AMIDE AS AN INHIBITOR OF THE FERROPTOSIS SUPPRESSOR PROTEIN-1 (FSP1)” (JULIUS-MAXIMILIANS-UNIVERSITÄT WÜRZBURG, priority 2021, published 2025).
Entries after “also recorded” stand apart in the source; their conditions may differ.

Experiments:
[1] = molecular target: T1, murine PGP (Mus musculus, UniProt Q8CHP8); assay: In vitro phosphoglycolate phosphatase assay (malachite green); assay type: biochemical
T1 construct: made in house
T1 sequence (Q8CHP8 1-321): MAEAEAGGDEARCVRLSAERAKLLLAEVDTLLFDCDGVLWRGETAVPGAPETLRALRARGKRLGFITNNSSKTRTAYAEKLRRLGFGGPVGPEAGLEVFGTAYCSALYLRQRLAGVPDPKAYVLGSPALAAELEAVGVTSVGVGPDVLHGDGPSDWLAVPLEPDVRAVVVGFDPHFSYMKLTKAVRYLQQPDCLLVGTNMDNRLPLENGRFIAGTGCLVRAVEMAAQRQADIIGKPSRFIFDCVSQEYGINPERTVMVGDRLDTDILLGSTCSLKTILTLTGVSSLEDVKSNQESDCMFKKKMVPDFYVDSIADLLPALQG
Procedure: Recombinant, purified murine phosphoglycolate phosphatase (PGP) was expressed and purified as described (Seifried et al., 2014). Experiments were performed in TNM30 (30 mM triethanolamine, 30 mM NaCl, 5 mM MgCl2; PH 7.5), supplemented with 0.01% (v/v) Triton X-100 and 5 mM dithiothreitol (DTT). Assays were conducted at room temperature in a final reaction volume of 50 μL in 96-well microtiter plates. PGP (5.7 nM) was pre-incubated with the compounds or the DMSO solvent control for 10 min, and enzyme reactions were started by the addition of the substrate phosphoglycolate (PG, 200 μM). Buffer without enzyme served as a background control. Inorganic phosphate release from PG was detected with malachite green solution (Biomol Green; Enzo Life Sciences). The absorbance at 620 nm (A620) was measured on an Envision 2104 multilabel microtiter plate reader (Perkin Elmer Life Sciences). Released phosphate was determined by converting the values to nmol Pi with a phosphate standard curve. Data were analyzed with GraphPad Prism version 7.0.5. For IC50 determinations, loginhibitor versus response was calculated for a Hill slope of −1.
Free inorganic phosphate released by PG dephosphorylation was quantified using malachite green.

[2] = tested on: HT1080, Du145 or PC3 cells; assay: Cell viability with CPBA alone, no ferroptosis inducers; assay type: cell-based; details: 16 h
Procedure: (§1) Cells were seeded onto 96-well plates (5,000 cells per well), and treated with serial dilutions of ferroptosis-inducing compounds (erastin, BSO, RSL3, FIN56) or cytotoxic drugs (staurosporine, nocodazole, tunicamycin, paclitaxel, etoposide, menadione, rotenone, FCCP, carboplatin) in the absence or presence of CPBA or iFSP1 (100 μM or 10 μM, respectively; unless stated otherwise) or the DMSO solvent control. Ferroptotic cell death was evaluated by incubating in the absence or presence of liproxstatin-1 (100 nM), ferrostatin-1 (200 nM), or deferoxamine (100 μM). Cell viability was assessed after 16 h using AquaBluer as an indicator of viable cells according to the manufacturer's recommendations (MultiTarget Pharmaceuticals, LLC). Fluorescence (excitation, 540 nm; emission, 590 nm) was analyzed on a Clariostar microplater reader.
To study the effect of increasing CPBA concentrations in the absence of ferroptosis inducers on the viability of HT1080, Du145 or PC3 cells. Cells were incubated with the indicated concentrations of CPBA alone or in the presence of ferroptosis inhibitors deferoxamine (DFO, an iron-chelator and ferroptosis inhibitor); ferrostatin (fer, a ferroptosis inhibitor); liproxstatin-1 (lip-1, a ferroptosis inhibitor); or zVAD-FMK (a pan-caspase and apoptosis inhibitor), and cell viability was analyzed after 16 h.

[3] = tested on: HT1080 cells, mouse embryonic fibroblasts (MEFs), Du145 and PC3; assay: Cell viability (AquaBluer): ferroptosis inducers (FINs) with or without CPBA; assay type: cell-based, human; details: 16 h
Procedure: as §1
HT1080 cells, mouse embryonic fibroblasts (MEFs, non-transformed, non-immortalized) and human prostate carcinoma cell lines Du145 and PC3 were incubated with serial dilutions of ferroptosis inducers (FINs) erastin, BSO, RSL3 or FIN56 in the absence or presence of CPBA and/or the ferroptosis inhibitor liproxstatin-1 (HT1080, Du145, PC3: 200 μM CPBA, MEF: 100 μM CPBA; lip-1:100 nM), and cell viability was analyzed after 16 h using Aquabluer. […]
AUC values (AUC FIN+CPBA/AUC FIN+ctrl) were calculated as described above.

[4] = tested on: HT1080 cells; assay: Lipid droplet staining with BODIPY 493/503; assay type: cell-based, human; details: CPBA 100 μM; T863 10 μM and PF-06424439 5 μM; 16 h
Procedure: HT1080 cells were seeded on glass coverslips (15,000 cells per well of 12-well plate) in complete DMEM, and incubated for 16 h with 100 μM CPBA or with 0.1% of the DMSO solvent control, in the absence or presence of inhibitors of DGAT1 and DGAT2 (10 μM T863/iDGAT1; 5 μM PF-06424439/iDGAT2). Cells were fixed with 4% para-formaldehyde, lipid droplets were stained with the neutral lipid droplet stain BODIPY 493/503 (2 μM, 30 min), and nuclei were counterstained with 4′,6-diamidino-2-phenylindole (DAPI). Cells were mounted with Immu-Mount (Fisher Scientific), and imaged by fluorescence microscopy on a THUNDER imager (THUNDER Imager Live Cell & 3D Cell Culture & 3D Assay system, Leica DMI8; Leica Microsystems), using a 63× objective.
We next investigated the impact of CPBA on triglyceride levels and ferroptosis sensitivity by first imaging lipid droplets with the neutral lipid stain BODIPY 493/503.
The diglyceride acyltransferase isoforms 1 and 2 (DGAT1, DGAT2) are required to catalyze the formation of triglycerides from diacylglycerol and acyl-CoA.

[5] = tested on: mouse embryonic fibroblasts (MEFs); assay: FIN-induced ferroptosis in Pgp-wildtype or heterozygous Pgp-inactivated MEFs; assay type: cell-based
Procedure: as §1
The above experiment was repeated in mouse embryonic fibroblasts (MEFs) generated from Pgp-wildtype (Pgp^fl/fl) or heterozygous Pgp-inactivated mouse embryos (Pgp^fl/D34N).

## O=C(Nc1ccccc1C(=O)O)c1ccc(Oc2ccc(C(=O)Nc3ccccc3C(=O)O)cc2)cc1 [CPBA, 2-[[4-[4-[(2-carboxyphenyl)carbamoyl]phenoxy]benzoyl]amino]-benzoic acid]
[1]
  inhibition of PGP: inhibitor of PGP
[2]; 400 μM CPBA
  cell death with the compound alone: Non-ferroptotic, non-apoptotic cell death is observed
[2]; no ferroptosis inducers
  concentrations at which the compound alone is not cytotoxic: up to 200 μM
[3]; FINs erastin, BSO, RSL3 or FIN56, 200 μM CPBA (MEF: 100 μM)
  effect on FIN-induced ferroptosis / cell viability: increases the negative effect of FINs on cell viability; also recorded: strongly increases FIN-induced ferroptosis in all cell lines
[3]; HT1080 and PC3 cells, serial dilutions of FINs±CPBA
  concentration dependence of ferroptosis-sensitization: ferroptosis-sensitization by CPBA is concentration-dependent
[4]
  lipid droplets: triggered the accumulation of lipid droplets in HT1080 cells
[5]
  sensitization to FIN-induced ferroptosis in Pgp^fl/fl and Pgp^fl/D34N cells: able to sensitize both Pgp^fl/fl and Pgp^fl/D34N cells to FIN-induced ferroptosis
